The values below come from PMC3515705 (Nature structural & molecular biology, 2012).

This experiment has as its target scRio2 (Saccharomyces cerevisiae, UniProt P40160).

scRio2, sequence (P40160 whole entry): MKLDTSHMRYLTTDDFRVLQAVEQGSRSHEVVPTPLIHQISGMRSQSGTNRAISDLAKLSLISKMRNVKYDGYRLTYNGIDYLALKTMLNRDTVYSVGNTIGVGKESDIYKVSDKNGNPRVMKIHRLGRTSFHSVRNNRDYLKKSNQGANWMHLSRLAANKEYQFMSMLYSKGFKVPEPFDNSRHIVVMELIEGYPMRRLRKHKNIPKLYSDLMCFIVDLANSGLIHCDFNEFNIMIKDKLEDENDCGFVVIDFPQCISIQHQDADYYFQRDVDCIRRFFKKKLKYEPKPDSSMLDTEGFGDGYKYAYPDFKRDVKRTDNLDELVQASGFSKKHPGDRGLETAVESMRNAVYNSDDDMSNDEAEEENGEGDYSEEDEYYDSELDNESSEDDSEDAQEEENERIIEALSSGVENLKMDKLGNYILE

Turning to `Nc1ncnc2c1ncn2[C@@H]1O[C@H](COP(=O)(O)OP(=O)(O)OP(=O)(O)O)[C@@H](O)[C@H]1O` [ATP], the “autophosphorylation detected by mass spectrometry” value was “phospho-serine residues after incubation of purified recombinant scRio2 with ATP”.
